Measured values published in article PMC12430169, “Notoginsenoside R1, a Metabolite from Panax notoginseng, Prevents Paclitaxel-Induced Peripheral Neuropathic Pain in Mice” (Molecules, 2025).

Target: T1, human recombinant monoacylglycerol lipase (MAGL) (Homo sapiens, UniProt Q99685)
T1 construct: gene MGLL
T1 sequence (Q99685 1-303): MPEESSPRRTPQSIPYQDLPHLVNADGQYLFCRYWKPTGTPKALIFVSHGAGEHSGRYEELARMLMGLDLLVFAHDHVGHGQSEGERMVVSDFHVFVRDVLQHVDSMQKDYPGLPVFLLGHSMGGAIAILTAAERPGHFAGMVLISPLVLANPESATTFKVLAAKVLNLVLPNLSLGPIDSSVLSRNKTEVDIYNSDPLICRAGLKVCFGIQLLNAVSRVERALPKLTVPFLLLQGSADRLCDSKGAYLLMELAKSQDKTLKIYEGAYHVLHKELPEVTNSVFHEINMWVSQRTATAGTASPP
Assay: colorimetric MAGL inhibitor screening kit (Cayman), 4-nitrophenyl acetate hydrolysis at […] nm; […] inhibition at […] at […] min, […] at […] min; inhibition falls with concentration
Type: biochemical

CC(C)=CCC[C@](C)(O[C@@H]1O[C@H](CO)[C@@H](O)[C@H](O)[C@H]1O)[C@H]1CC[C@]2(C)[C@@H]1[C@H](O)C[C@@H]1[C@@]3(C)CC[C@H](O)C(C)(C)[C@@H]3[C@@H](O[C@@H]3O[C@H](CO)[C@@H](O)[C@H](O)[C@H]3O[C@@H]3OC[C@@H](O)[C@H](O)[C@H]3O)C[C@]12C [NGR1, Notoginsenoside R1]
inhibition at 1 µM: 41%
